In series [1] the test system is HepG2 cells. The experiment in a line: Cytotoxicity, CellTiter 96 assay. In kind it is cell-based, human. Conditions: 24 h incubation. Here is the method: HepG2, human hepatocellular carcinoma cells (ATCC HB-8065; passage 5–8) purchased from Health Protection Agency Culture Collections (ECACC, Salisbury, UK) were cultured in Minimum Essentials Eagle Medium supplemented with 10% fetal bovine serum, 1% L-glutamine solution and non-essential amino acid solution (Sigma-Aldrich, St. Louis, MO, USA) in a humidified atmosphere containing 5% CO2 at 37 °C. For subculturing, the cells were harvested after trypsin/EDTA (Sigma-Aldrich, St. Louis, USA) treatment at 37 °C. To evaluate cytotoxicity, the cells treated with the tested substances were used as experimental groups whereas untreated HepG2 cells served as control groups.
The cells were seeded in a density of 10 000 cells per well in a 96-well plate. The following day the cells were treated with each of the tested substances dissolved in DMSO (maximal incubation concentration of DMSO was 1% v/v). The tested substances were prepared at different incubation concentrations in triplicates according to their solubility. Simultaneously, the controls representing 100% cell viability, 0% cell viability (the cells treated with 10% DMSO), no cell control and vehiculum controls were also involved in triplicates. After 24 h incubation in a humidified atmosphere containing 5% CO2 at 37 °C, the reagent from the kit CellTiter 96 AQueous One Solution Cell Proliferation Assay (CellTiter 96; Promega, Fitchburg, WI, USA) was added. After 2 h incubation at 37 °C absorbance of samples was recorded at 490 nm (TECAN, Infinita M200, Grödig, Austria). A standard toxicological parameter IC50 was calculated by nonlinear regression from a semilogarithmic plot of incubation concentration versus percentage of absorbance relative to untreated controls using GraphPad Prism software (version 6; GraphPad Software, Inc., La Jolla, CA, USA).
The CellTiter 96 assay used is based on the reduction of tetrazolium dye in living cells to formazan, which is then determined colorimetrically. This reduction is related to availability of NADH or NADPH. The decline in levels of these metabolically important compounds in the cell causes that the production of formazan is reduced. For quantitative comparison of cytotoxicity, the parameter IC50 was used.

In series [2] the test system is Candida krusei E28. Kind of series: Antifungal microdilution broth method, C. krusei. In kind it is cell-based. The settings on record: Pichia kudriavzevii. The method, then: (§1) The antifungal properties were evaluated against five yeast strains, namely: Candida albicans ATCC 44859, Candida tropicalis 156, Candida krusei […], Candida glabrata 20/I, Trichosporon […] 1188 and three strains of filamentous fungi: Aspergillus fumigatus 231, Lichtheimia corymbifera 272, and Trichophyton interdigitale 445. A microdilution broth method was performed according to EUCAST II, III instructions with slight modifications. Briefly, tested compounds were dissolved in DMSO and diluted in a twofold manner with RPMI-1640 medium with L-glutamine, supplemented with 2% glucose (w/v) and buffered to pH 7.0 with 3 morpholinopropane-1-sulfonic acid (all components were purchased from Sigma-Aldrich, USA). […] Positive controls consisted of test microbe solely, while negative controls consisted of medium and DMSO. Internal quality control was included too. Visual inspection was used for MIC endpoints evaluation. The experiments were conducted in duplicates. For the results to be valid, the difference in MIC determined from two parallel measurements must not be greater than one step on the dilution scale. PABA and triazole antimycotic drug fluconazole were involved as the reference compounds.
For orientation: Broth dilution looks for growth in wells or tubes with falling amounts of substance.

Series [3] concerns Candida glabrata 20/I. Kind of series: Antifungal microdilution broth method, C. glabrata. Conditions: Nakaseomyces glabratus. In kind it is cell-based. Here is the method: as §1
Series [4] concerns Aspergillus fumigatus 231. The experiment in a line: Antifungal microdilution broth method, A. fumigatus. In kind it is cell-based. Here is the method: as §1
The test system of series [5] is Lichtheimia corymbifera 272. Kind of series: Antifungal microdilution broth method, L. corymbifera. In kind it is cell-based. Here is the method: as §1
The test system of series [6] is Trichosporon asahii 1188. The experiment in a line: Antifungal microdilution broth method, T. asahii. In kind it is cell-based. Here is the method:
as §1

In series [7] the test system is Trichophyton interdigitale 445. Kind of series: Antifungal microdilution broth method, T. interdigitale. In kind it is cell-based. Here is the method: as §1
The test system of series [8] is Candida tropicalis 156. Kind of series: Antifungal microdilution broth method, C. tropicalis. In kind it is cell-based. The method, then:
as §1

Series [9] has as its system Candida albicans ATCC 44859. The experiment in a line: Antifungal microdilution broth method, C. albicans. In kind it is cell-based. Here is the method:
as §1

The test system of series [10] is Mycobacterium tuberculosis H37Rv (331/88). Kind of series: Antimycobacterial micromethod in Šula's medium, M. tuberculosis. In kind it is cell-based.
Series [11] relates to M. kansasii 6509/96 (clinical isolate). The experiment in a line: Antimycobacterial micromethod in Šula's medium, M. kansasii 6509/96. In kind it is cell-based. The settings on record: Mycobacterium kansasii.
Series [12] relates to Mycobacterium avium 330/88. Kind of series: Antimycobacterial micromethod in Šula's medium, M. avium. In kind it is cell-based.
Series [13] deals with Mycobacterium kansasii 235/80. The experiment in a line: Antimycobacterial micromethod in Šula's medium, M. kansasii 235/80. In kind it is cell-based.
For series [14], the system named is Pseudomonas aeruginosa ATCC 27853, CCM 3955. The experiment in a line: Antibacterial microdilution broth method, P. aeruginosa. Conditions: P. aeruginosa. In kind it is cell-based.
Series [15] has as its system Escherichia coli ATCC 25922, CCM 3954. The experiment in a line: Antibacterial microdilution broth method, E. coli. In kind it is cell-based.
For series [16], the system named is Staphylococcus epidermidis H 6966/08. Kind of series: Antibacterial microdilution broth method, S. epidermidis. In kind it is cell-based. The settings on record: S. epidermidis.
Series [17] has as its system Klebsiella pneumoniae D 11750/08. The experiment in a line: Antibacterial microdilution broth method, K. pneumoniae. Conditions: K. pneumoniae D 11750/08.
Series [18] has as its system methicillin-resistant Staphylococcus aureus ATCC 43300, CCM 4750 (MRSA). Kind of series: Antibacterial microdilution broth method, MRSA. In kind it is cell-based.
For series [19], the system named is Enterococcus faecalis ATCC 29212, CCM 4224. The experiment in a line: Antibacterial microdilution broth method, E. faecalis. In kind it is cell-based.
Series [20] deals with ESBL-positive Klebsiella pneumoniae J 14368/08. The settings on record: ESBL-positive K. pneumoniae.
The mark [21] stands for this setting: 24 h incubation, read-out: MIC PA 24 h.
The mark [22] stands for this setting: 48 h incubation, read-out: MIC PA 48 h.
The mark [23] stands for this setting: 24 h incubation, read-out: MIC EC 24 h.
The mark [24] stands for this setting: 48 h incubation, read-out: MIC EC 48 h.

Converted amounts (≈) assume the structure as drawn. Where two headings read alike, the source gives them in different places. Where only a bound is given, the exact number is not on record here.

In the case of `N.N.[Cl][Pt][Cl]` [Cisplatin, cisplatin, reference compound], in series [1], inhibition was half-maximal at 21.3 µM (IC50).

`OC(Cn1cncn1)(Cn1cncn1)c1ccc(F)cc1F` [FLU, fluconazole, reference compound]: the MIC50 (as a rule, an inhibitory concentration at the 50% level, which refers to growth in some studies and to a panel of isolates in others) in series [2] (24 h, fluconazole values mean MIC50, read-out: MIC50 CK 24 h) was 125 µM (≈ 38.3 µg/mL); in series [2] (48 h, fluconazole values mean MIC50, read-out: MIC50 CK 48 h), 250 µM (≈ 76.6 µg/mL); in series [3] (24 h, fluconazole values mean MIC50, read-out: MIC50 CG 24 h), 31.2 µM (≈ 9.57 µg/mL); in series [3] (48 h, fluconazole values mean MIC50, read-out: MIC50 CG 48 h), 500 µM (≈ 153 µg/mL); in series [4] (24 h, fluconazole values mean MIC50, read-out: MIC50 AF 24 h) it was over 500 µM; in series [4] (48 h, fluconazole values mean MIC50, read-out: MIC50 AF 48 h), over 500 µM. Moreover, the MIC50 is over 500 µM in series [5] (24 h, fluconazole values mean MIC50, read-out: MIC50 LC 24 h); over 500 µM in [5] (48 h, fluconazole values mean MIC50, read-out: MIC50 LC 48 h); 250 µM (≈ 76.6 µg/mL) in series [6] (24 h, fluconazole values mean MIC50, read-out: MIC50 TA 24 h); 500 µM (≈ 153 µg/mL) in [6] (48 h, fluconazole values mean MIC50, read-out: MIC50 TA 48 h); 7.81 µM (≈ 2.39 µg/mL) in [7] (72 h, fluconazole values mean MIC50, read-out: MIC50 TI 72 h); 125 µM (≈ 38.3 µg/mL) in [7] (120 h, fluconazole values mean MIC50, read-out: MIC50 TI 120 h). In addition, the MIC50 was over 500 µM in series [8] (24 h, fluconazole values mean MIC50, read-out: MIC50 CT 24 h); over 500 µM in series [8] (48 h, fluconazole values mean MIC50, read-out: MIC50 CT 48 h); 0.24 µM (≈ 0.0735 µg/mL) in [9] (ATCC44859, 24 h, fluconazole values mean MIC50, read-out: MIC50 CA 24 h); 0.24 µM (≈ 0.0735 µg/mL) in series [9] (ATCC44859, 48 h, fluconazole values mean MIC50, read-out: MIC50 CA 48 h).

In the case of `NNC(=O)c1ccncc1` [INH, isoniazid, reference compound], the MIC in [10] (336 h, 14 days incubation at 37 °C, read-out: MIC Mtb. 331/88 14 d) was 0.5 µM (≈ 0.0686 µg/mL); in [10] (504 h, 21 days incubation at 37 °C, read-out: MIC Mtb. 331/88 21 d) it was 1 µM (≈ 0.137 µg/mL); in [11] (168 h, 7 days incubation at 37 °C, read-out: MIC M. kansasii 6509/96 7 d), 8 µM (≈ 1.1 µg/mL); in [11] (336 h, 14 days incubation at 37 °C, read-out: MIC M. kansasii 6509/96 14 d), 8 µM (≈ 1.1 µg/mL); in series [11] (504 h, 21 days incubation at 37 °C, read-out: MIC M. kansasii 6509/96 21 d), 8 µM (≈ 1.1 µg/mL); in series [12] (330/88, 336 h, 14 days incubation at 37 °C, read-out: MIC M. avium 330/88 14 d), over 250 µM. Besides, the MIC in series [12] (330/88, 504 h, 21 days incubation at 37 °C, read-out: MIC M. avium 330/88 21 d) was over 250 µM; in series [13] (235/80, 168 h, 7 days incubation at 37 °C, read-out: MIC M. kansasii 235/80 7 d), over 250 µM; in [13] (235/80, 336 h, 14 days incubation at 37 °C, read-out: MIC M. kansasii 235/80 14 d) it was over 250 µM; in series [13] (235/80, 504 h, 21 days incubation at 37 °C, read-out: MIC M. kansasii 235/80 21 d) it was over 250 µM.

In the case of `NC[C@@H]1O[C@H](O[C@H]2[C@@H](O)[C@H](O[C@@H]3[C@@H](O)[C@H](N)C[C@H](N)[C@H]3O[C@H]3O[C@H](CN)[C@@H](O)[C@H](O)[C@H]3N)O[C@@H]2CO)[C@H](N)[C@@H](O)[C@@H]1O` [NEO, neomycin, reference compound], the MIC in series [14] (setting [21]) turned out to be 7.81 µM (≈ 4.8 µg/mL); in [14] (setting [22]) it was 15.62 µM (≈ 9.6 µg/mL); in series [15] (setting [23]), 3.9 µM (≈ 2.4 µg/mL); in series [15] (setting [24]), 3.9 µM (≈ 2.4 µg/mL).

As for bacitracin [reference compound], the MIC in series [16] (24 h incubation, read-out: MIC SE 24 h) amounted to 15.62 µM; in series [16] (48 h incubation, read-out: MIC SE 48 h) it was 31.25 µM; in series [18] (24 h incubation, read-out: MIC MRSA 24 h), 15.62 µM; in series [18] (48 h incubation, read-out: MIC MRSA 48 h) it was 15.62 µM; in [19] (24 h incubation, read-out: MIC EF 24 h), 15.62 µM; in series [19] (48 h incubation, read-out: MIC EF 48 h) it was 62.5 µM. Further, the MIC in [14] (setting [21]), in series [14] (setting [22]), in series [15] (setting [23]) and in [15] (setting [24]) was over 500 µM throughout. For the same compound, the “MIC KP 24 h” value in [17] (24 h incubation) is over 500 µM. Also, the “MIC KP 48 h” value in series [17] (48 h incubation) is given as over 500 µM. Further, the “MIC KP-E 24 h” value in series [20] (24 h incubation) is listed as over 500 µM. Moreover, in series [20] (48 h incubation), the “MIC KP-E 48 h” value is over 500 µM.

Source of the values: publication PMC7023430, “4-Aminobenzoic Acid Derivatives: Converting Folate Precursor to Antimicrobial and Cytotoxic Agents” (Biomolecules, 2019).
